Assay results as given in patent USRE36854E, “Vitamin D compounds and method of preparing these compounds” (Duphar International Research B.V., priority 1997, dated 2000).

What was measured:
[1] = tested on: human leukemic cell line HL-60; experiment: HL-60 cell differentiation assay (NBT reduction, non-specific esterase, May-Grunwald Giemsa); assay type: cell-based; settings: for induction of differentiation and maturation of the HL-60 cells: 10^-12 to 10^-6 M; for induction of differentiation and maturation of the HL-60 cells / NBT-reduction inducing capacity relative to 1α,25-DHCC (fold stronger) / differentiation in the cytological test (non-specific esterase and May-Grunwald Giemsa): HL-60; for NBT-reduction inducing capacity relative to 1α,25-DHCC (fold stronger): FIGS. 3 and 4; for concentration range of optimum effect: HL-60, cytological test
Procedure: Vitamin D compounds according to the invention are dissolved in ethanol in concentrations ranging from 10^-12 to 10^-6 M and tested for their capacity to induce cell differentiation in a HL-60 assay. In this assay, morphologic and biochemical examination of the human leukemic cell line HL-60 is done, in order to establish whether cell differentiation has taken place.
Differentiation is expressed as the maturation parameters nitroblue tetrazolium (NBT) reduction, non-specific esterase, and as the percentage of mature cells beyond the myelocyte stage which is visible after staining with May-Grunwald Giemsa. After culturing with the known 1α,25-DHCC or with vitamin D compounds of the invention, the percentage of cells containing black formazan deposits is determined. An increase in the percentage of NBT reducing cells indicates an increase in cell differentiation.
Proliferation and vitality of the cell cultures are established by counting the number of cells and by the trypan blue exclusion method.

[2] = tested on: intestinal cancer cell line Caco-2; experiment: Caco-2 assay for intestinal calcium transport (45Ca2+ influx); assay type: cell-based; settings: for relative increase in Ca^2+ influx (1α,25-DHCC = 100): 10^-9 M
Procedure: The most well-known effect of 1α,25-DHCC is its action on the calcium metabolism, the calciotropic effect. Calciotropic target organs are the intestine, the bone and the kidney. The vitamin D compounds according to the invention are dissolved in ethanol and tested in the so-called Caco-2 assay for intestinal calcium (Ca) transport. In this assay, the vitamin D-induced influx of ^45 Ca^2+ is measured in monolayers of the intestinal cancer cell line Caco-2. This influx is corrected for the concentration-driven Ca^2+ influx and is a measure for the Ca transport across the intestinal wall. The Caco-2 cells are known to have vitamin D receptors. Increased intestinal calcium transport can be the first step leading to a rise in blood calcium levels (and eventually to hypercalcemia). […] The values in the table represent the relative increase in Ca^2 + influx (the value for 1α,25-DHCC is arbitrarily fixed at 100).

[3] = tested on: HL-60 cells / intestinal Ca^2+ transport; experiment: Cell differentiation versus calciotropic effect (ratio of HL-60 NBT reduction to intestinal Ca2+ transport); assay type: cell-based, human; settings: for selectivity of action / better ratio than 1α,25-DHCC (fold): differentiation versus intestinal Ca transport; for ratio relative to DHCC: fraction normalised to 1α,25-DHCC = 1.00; for fraction (concentration for 50% NBT reduction in HL-60 cells / concentration for half-maximal increase in intestinal Ca^2+ transport): smaller ratio = higher relative cell differentiating capacity
From the text: Therefore, it should be very advantageous to develop compounds with a high selectivity of biological action. In other words, compounds in which the ratio between the induction of cell differentiation and calciotropic effects, e.g. the stimulation of intestinal Ca transport, is changed compared to 1α,25-DHCC. The ratio between differentiation-inducing capacity and the stimulation of intestinal Ca transport is defined as the fraction between the concentration at which 50% NBT reduction in HL-60 cells is obtained, and the concentration at which a half-maximal increase in intestinal Ca^2+ transport is reached. The smaller the ratio, the higher the relative cell differentiating capacity.

[4] = target: T1, calf thymus intracellular vitamin D receptor (VDR) (Bos taurus, UniProt Q28037); experiment: Affinity to intracellular vitamin D receptor (displacement of 3H-1α,25-DHCC); assay type: binding; settings: 10^-13 to 10^-7 M
T1 construct: 3H-1α,25-DHCC displacement
T1 sequence (Q28037 1-426): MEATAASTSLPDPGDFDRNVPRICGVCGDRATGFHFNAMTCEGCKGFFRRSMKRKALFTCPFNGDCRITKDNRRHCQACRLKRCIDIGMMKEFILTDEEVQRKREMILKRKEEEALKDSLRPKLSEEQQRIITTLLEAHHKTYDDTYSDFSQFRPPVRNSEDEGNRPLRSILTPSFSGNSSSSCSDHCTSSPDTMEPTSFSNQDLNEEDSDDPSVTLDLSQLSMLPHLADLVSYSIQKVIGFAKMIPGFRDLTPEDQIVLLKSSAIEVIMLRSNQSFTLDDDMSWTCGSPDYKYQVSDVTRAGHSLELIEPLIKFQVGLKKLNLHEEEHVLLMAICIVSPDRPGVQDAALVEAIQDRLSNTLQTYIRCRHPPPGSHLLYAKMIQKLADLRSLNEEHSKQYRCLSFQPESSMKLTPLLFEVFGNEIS
From the text: In this assay, ^3 H-1α,25-dihydroxycholecalciferol (^3 H-1α,25-DHCC), which is specifically bound to the VDR, is replaced by the tested compounds. Especially the tested compounds 11, 13 and 14 have a very high VDR-affinity. A high VDR-affinity is indicative for biologically active substances.

[5] = target: T2, human vitamin D binding protein (DBP) (Homo sapiens, UniProt P02774); experiment: Affinity to vitamin D binding protein (competition with 3H-1α,25-DHCC); settings: DBP purified from total human serum; 10^-11 to 2.5×10^-6 M; FIGS. 1 and 2
T2 sequence (P02774 17-474): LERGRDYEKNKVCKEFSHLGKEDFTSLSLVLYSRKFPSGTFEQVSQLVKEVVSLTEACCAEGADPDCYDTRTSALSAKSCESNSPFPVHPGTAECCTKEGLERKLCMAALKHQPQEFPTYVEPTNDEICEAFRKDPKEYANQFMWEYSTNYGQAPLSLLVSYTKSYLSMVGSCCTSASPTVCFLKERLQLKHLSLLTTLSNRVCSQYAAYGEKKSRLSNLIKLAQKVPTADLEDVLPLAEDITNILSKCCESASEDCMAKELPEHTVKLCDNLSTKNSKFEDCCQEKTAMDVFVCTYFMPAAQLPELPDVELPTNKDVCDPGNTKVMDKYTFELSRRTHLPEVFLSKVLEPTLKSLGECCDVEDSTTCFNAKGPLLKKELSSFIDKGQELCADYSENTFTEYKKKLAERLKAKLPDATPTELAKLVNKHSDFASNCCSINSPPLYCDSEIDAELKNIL
Procedure: Vitamin D binding protein (DBP) is the specific carrier for vitamin D and its metabolites in blood. The biological activity of vitamin D compounds depends on their binding to DBP, because strong binding to DBP will reduce the intracellular access to the VDR. Binding to the DBP may also influence the half-life of the vitamin D derivatives in circulation. Weak binders are rapidly matabolized, which is a favourable aspect in topical application. In the assay DBP is incubated with ^3 H-1α,25-DHCC and 1α,25-DHCC or with several vitamin D compounds according to the invention. To this purpose, the vitamin compounds are dissolved in ethanol in concentrations ranging from 10^-11 to 2.5×10^-6 M. The percentage bound/unbound ^3 H-1α,25-DHCC is then calculated. DBP is purified from total human serum. The results are shown in the appended FIGS. 1 and 2. FIGS. 1 and 2 show the binding of vitamin D compounds to human vitamin D binding protein. [^3 H]1α,25(OH)2 D3 =^3 H-1α,25-DHCC; in both Figures .circle-solid.=1α,25-DHCC (known compound); in FIG. 1 .tangle-solidup.=compound 13 and .gradient.=compound 14; in FIG. 2 Δ=compound 11.

rabbit kidney cells = experiment: Rabbit kidney cell assay (45Ca2+ reabsorption); assay type: cell-based; settings: rabbit renal cell cultures; for increase in Ca^2+ -reabsorption: 10^-9 M
Procedure: Together with the intestine and the bone, the kidney is one of the major target organs of 1α,25-DHCC. The kidney plays an extremely important role in calcium homeostasis, since about 98% of the calcium has to be reabsorbed in the kidneys in order to prevent calcium loss and hypocalcemia. The vitamin D compounds according to the invention are dissolved in ethanol and tested in the rabbit kidney cell assay. In this assay, reabsorption of ^45 Ca^2+ is measured in monolayers of rabbit kidney cells. The cells are isolated by immunodissection of connecting tubules with the aid of monoclonal antibodies. […] The values in the Table represent the increase in Ca^2+ -reabsorption in mmol/cm^2 /h.

SMILES	induction of differentiation and maturation of the HL-60 cells [1]	NBT-reduction inducing capacity relative to 1α,25-DHCC (fold stronger) [1]	stimulation of intestinal calcium absorption compared with 1α,25-DHCC [2]	relative increase in Ca^2+ influx (1α,25-DHCC = 100) ([2]; experiment 2)	selectivity of action / better ratio than 1α,25-DHCC (fold) [3]	ratio relative to DHCC [3]	fraction (concentration for 50% NBT reduction in HL-60 cells / concentration for half-maximal increase in intestinal Ca^2+ transport) [3]	VDR-affinity [4]	binding to the DBP, compared to the known 1α,25-DHCC [5]	stimulation of renal Ca-reabsorption compared with compound 12 and 1α,25-DHCC (rabbit kidney cells)	increase in Ca^2+ -reabsorption (rabbit kidney cells)	differentiation in the cytological test (non-specific esterase and May-Grunwald Giemsa) [1]	concentration range of optimum effect [1]	relative increase in Ca^2+ influx (1α,25-DHCC = 100) ([2]; experiment 1)
C=C1/C(=C\C=C2/CCC[C@@]3(CC)C2CCC3[C@H](C)CCCC(O)(C(C)C)C(C)C)C[C@@H](O)C[C@@H]1O (stereo partly drawn) [Compound 14]	induce differentiation and maturation	about 10 ×	weaker stimulators	78	50 ×	0.02	2.6	very high	bind rather weakly	–	–	–	–	–
C=C1/C(=C\C=C2/CCC[C@@]3(C)C2CCC3[C@H](C)CCCC(O)(C(C)C)C(C)C)C[C@@H](O)C[C@@H]1O (stereo partly drawn) [Compound 13]	induce differentiation and maturation	about 10 ×	weaker stimulators	65	50 ×	0.02	2.5	very high	very weak binder	weaker stimulators	-3.7 mmol/cm^2 /h	good differentiators	10^-8 to 10^-7 M	–
C=C1/C(=C\C=C2/CCC[C@]3(C)[C@@H]([C@H](C)CCCC(C)(C)O)CC[C@@H]23)C[C@@H](O)C[C@@H]1O [1α,25-DHCC, 1α,25-dihydroxycholecalciferol, reference compound]	induce differentiation and maturation	–	–	100	–	1.00	107	–	–	–	13.4 mmol/cm^2 /h	–	–	100
C=C1/C(=C\C=C2/CCC[C@@]3(C)C2CCC3[C@H](C)CCCC(O)(C(C)(C)C)C(C)(C)C)C[C@@H](O)C[C@@H]1O (stereo partly drawn) [Compound 12]	induce differentiation and maturation	about 5 ×	–	–	4 ×	0.28	29.7	–	–	–	12.8 mmol/cm^2 /h	–	–	99
C=C1/C(=C\C=C2/CCC[C@@]3(C)C2CCC3[C@H](C)CCCC(O)(C2CC2)C2CC2)C[C@@H](O)C[C@@H]1O (stereo partly drawn) [Compound 11]	induce differentiation and maturation	about 5 ×	weaker stimulators	–	8 ×	0.13	14.4	very high	bind rather weakly	weaker stimulators	2.4 mmol/cm^2 /h	good differentiators	10^-8 to 10^-7 M	79
